Experimental data published in publication PMC5951806, “Rapid labelling and covalent inhibition of intracellular native proteins using ligand-directed N-acyl-N-alkyl sulfonamide” (Nature Communications, 2018).

Experiments:
Test in all cases: TMT LC-MSMS of 11-labelled proteins
Type in all cases: cell-based
[1] = biological target: Isoform 2 of Elongation factor 1-gamma (EEF1G) (Homo sapiens, UniProt P26641); conditions: SKBR3 cells; for Abundance Ratio: (11) / (DMSO): 11 0.5 µM 3 h vs DMSO; for Abundance Ratio: (11) / (11 with PU-H71): 11 0.5 µM 3 h vs with PU-H71 10 µM
Sequence of Isoform 2 of Elongation factor 1-gamma (EEF1G) (P26641 5-437 limits assumed): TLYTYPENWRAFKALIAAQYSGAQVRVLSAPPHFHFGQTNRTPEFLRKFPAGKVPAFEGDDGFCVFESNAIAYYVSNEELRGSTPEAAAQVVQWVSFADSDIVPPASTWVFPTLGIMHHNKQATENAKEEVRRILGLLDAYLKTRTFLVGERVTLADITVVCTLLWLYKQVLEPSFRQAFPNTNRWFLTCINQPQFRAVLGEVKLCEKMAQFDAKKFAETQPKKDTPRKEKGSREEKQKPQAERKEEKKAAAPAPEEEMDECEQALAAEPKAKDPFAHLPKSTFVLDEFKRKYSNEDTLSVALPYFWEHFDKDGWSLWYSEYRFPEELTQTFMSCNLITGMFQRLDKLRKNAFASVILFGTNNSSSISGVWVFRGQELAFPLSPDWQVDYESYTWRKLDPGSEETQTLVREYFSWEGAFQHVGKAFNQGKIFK

[2] = biological target: T1, Folate transporter 1 (SLC19A1) (Homo sapiens, UniProt P41440)
T1 sequence (P41440 1-591): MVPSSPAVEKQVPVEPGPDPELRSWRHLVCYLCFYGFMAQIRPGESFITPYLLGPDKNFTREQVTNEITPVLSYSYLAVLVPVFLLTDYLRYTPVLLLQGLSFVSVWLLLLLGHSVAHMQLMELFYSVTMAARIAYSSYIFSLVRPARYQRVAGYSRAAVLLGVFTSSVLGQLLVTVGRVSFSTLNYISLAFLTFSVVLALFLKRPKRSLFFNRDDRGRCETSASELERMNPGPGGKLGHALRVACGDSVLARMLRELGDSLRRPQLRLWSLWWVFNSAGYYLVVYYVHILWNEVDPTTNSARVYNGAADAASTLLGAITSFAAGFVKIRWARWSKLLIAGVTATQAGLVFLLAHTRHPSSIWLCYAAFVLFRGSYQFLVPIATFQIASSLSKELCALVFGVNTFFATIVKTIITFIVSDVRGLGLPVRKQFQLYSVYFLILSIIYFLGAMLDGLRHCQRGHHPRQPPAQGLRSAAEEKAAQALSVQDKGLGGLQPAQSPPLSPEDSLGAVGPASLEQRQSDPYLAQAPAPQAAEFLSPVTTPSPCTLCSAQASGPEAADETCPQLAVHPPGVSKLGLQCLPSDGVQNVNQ

[3] = biological target: Multidrug resistance-associated protein 5 (ABCC5) (Homo sapiens, UniProt O15440)
Sequence of Multidrug resistance-associated protein 5 (ABCC5) (O15440 whole entry): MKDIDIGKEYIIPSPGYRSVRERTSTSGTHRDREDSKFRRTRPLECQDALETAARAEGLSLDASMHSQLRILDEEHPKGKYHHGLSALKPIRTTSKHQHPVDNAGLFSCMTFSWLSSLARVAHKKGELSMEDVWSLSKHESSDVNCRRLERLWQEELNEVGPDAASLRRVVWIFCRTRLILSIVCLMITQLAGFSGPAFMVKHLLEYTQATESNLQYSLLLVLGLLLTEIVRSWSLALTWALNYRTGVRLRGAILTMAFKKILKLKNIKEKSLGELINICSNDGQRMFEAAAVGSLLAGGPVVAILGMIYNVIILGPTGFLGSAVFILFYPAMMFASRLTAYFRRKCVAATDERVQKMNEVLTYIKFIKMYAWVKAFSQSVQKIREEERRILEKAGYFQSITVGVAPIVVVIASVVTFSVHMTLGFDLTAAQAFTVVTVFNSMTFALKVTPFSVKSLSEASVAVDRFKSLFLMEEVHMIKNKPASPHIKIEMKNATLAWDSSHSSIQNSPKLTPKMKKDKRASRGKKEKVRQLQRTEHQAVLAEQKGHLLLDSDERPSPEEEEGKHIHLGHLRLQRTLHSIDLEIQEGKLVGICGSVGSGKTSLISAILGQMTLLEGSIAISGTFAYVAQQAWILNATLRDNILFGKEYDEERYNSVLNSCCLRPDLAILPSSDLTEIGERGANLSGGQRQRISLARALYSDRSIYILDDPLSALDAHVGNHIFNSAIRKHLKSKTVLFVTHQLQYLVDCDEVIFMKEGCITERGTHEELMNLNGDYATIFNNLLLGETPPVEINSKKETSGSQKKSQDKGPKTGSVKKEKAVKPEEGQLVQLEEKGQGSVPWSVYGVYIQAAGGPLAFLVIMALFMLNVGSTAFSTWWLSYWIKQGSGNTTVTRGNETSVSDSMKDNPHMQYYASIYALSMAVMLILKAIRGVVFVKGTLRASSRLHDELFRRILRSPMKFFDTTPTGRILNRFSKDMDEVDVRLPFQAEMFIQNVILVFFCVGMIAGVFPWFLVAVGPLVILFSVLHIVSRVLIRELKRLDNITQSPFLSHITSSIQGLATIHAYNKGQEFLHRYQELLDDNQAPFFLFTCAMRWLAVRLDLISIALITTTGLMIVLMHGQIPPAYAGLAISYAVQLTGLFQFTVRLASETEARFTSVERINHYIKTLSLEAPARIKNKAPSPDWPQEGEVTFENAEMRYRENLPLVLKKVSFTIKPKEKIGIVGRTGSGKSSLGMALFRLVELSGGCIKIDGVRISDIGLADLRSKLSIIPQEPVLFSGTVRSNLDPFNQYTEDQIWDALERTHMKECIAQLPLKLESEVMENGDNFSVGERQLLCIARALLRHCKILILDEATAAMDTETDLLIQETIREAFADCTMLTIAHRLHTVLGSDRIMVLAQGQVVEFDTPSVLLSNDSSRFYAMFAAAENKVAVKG

[4] = sheet Merged, SKBR3 cells, 11 0.5 µM 3 h vs DMSO
[5] = sheet Merged, SKBR3 cells, 11 0.5 µM 3 h vs with PU-H71 10 µM

SMILES: CC(=O)Oc1ccc2c(c1)Oc1cc(OC(C)=O)ccc1C21OC(=O)c2cc(C(=O)NCCOCCOCCNC(=O)CCCC(=O)N(CC#N)S(=O)(=O)c3ccc(C(=O)NCCCn4c(Sc5cc6c(cc5I)OCO6)nc5c(N)ncnc54)cc3)ccc21 [compound 11]
- Abundance Ratio: (11) / (DMSO) ([1]; sheet Exp1): 4.152
- Abundance Ratio: (11) / (11 with PU-H71) ([1]; sheet Exp1): 0.818
- Abundance Ratio: (11) / (DMSO) ([1]; sheet Merged): 1.23
- Abundance Ratio: (11) / (11 with PU-H71) ([1]; sheet Merged): 0.746
- Abundance Ratio: (11) / (11 with PU-H71) ([2]; Exp3, SLC19A1): 0.875
- Abundance Ratio: (11) / (DMSO) ([2]; Exp3, SLC19A1): 5.164
- Abundances (Grouped): 11 ([2]; Exp3, SLC19A1): 56.8
- Abundances (Grouped): 11 with PU-H71 ([2]; Exp3, SLC19A1): 64.9
- Abundance Ratio: (11) / (11 with PU-H71) ([2]; sheet Exp2, SLC19A1): 1.054
- Abundance Ratio: (11) / (DMSO) ([2]; sheet Exp2, SLC19A1): 3.79
- Abundances (Grouped): 11 ([2]; sheet Exp2, SLC19A1): 111.8
- Abundances (Grouped): 11 with PU-H71 ([2]; sheet Exp2, SLC19A1): 106.1
- Abundance Ratio: (11) / (DMSO) [2, 4]: 4.595
- Abundance Ratio: (11) / (11 with PU-H71) [2, 5]: 0.985
- Abundance Ratio: (11) / (11 with PU-H71) ([3]; Exp3, ABCC5): 0.868
- Abundance Ratio: (11) / (DMSO) ([3]; Exp3, ABCC5): 4.007
- Abundances (Grouped): 11 ([3]; Exp3, ABCC5): 227.2
- Abundances (Grouped): 11 with PU-H71 ([3]; Exp3, ABCC5): 261.9
- Abundance Ratio: (11) / (DMSO) ([3]; sheet Exp1, SKBR3 cells, 11 0.5 µM 3 h vs DMSO): 1.935
- Abundance Ratio: (11) / (11 with PU-H71) ([3]; sheet Exp1, SKBR3 cells, 11 0.5 µM 3 h vs with PU-H71 10 µM): 1.002
- Abundance Ratio: (11) / (11 with PU-H71) ([3]; sheet Exp2, ABCC5): 0.947
- Abundance Ratio: (11) / (DMSO) ([3]; sheet Exp2, ABCC5): 2.92
- Abundances (Grouped): 11 ([3]; sheet Exp2, ABCC5): 189.2
- Abundances (Grouped): 11 with PU-H71 ([3]; sheet Exp2, ABCC5): 199.7
- Abundance Ratio: (11) / (DMSO) [3, 4]: 3.871
- Abundance Ratio: (11) / (11 with PU-H71) [3, 5]: 0.868
